Test results from ChEMBL document CHEMBL3769397, “A new GLP-1 analogue with prolonged glucose-lowering activity in vivo via backbone-based modification at the N-terminus” (Bioorg Med Chem, 2016).
pEC50: −log10 of the molar value.

How the values were obtained:
[1] = target: T1, DPP4 (dipeptidyl peptidase 4) (Homo sapiens, UniProt P27487); assay: Drug degradation assessed as recombinant human DPP4-mediated cleavage by measuring compound remaining after 8 hrs by RP-HPLC analysis; assay type: ADME; details: read-out: Stability
T1 sequence (P27487 whole entry): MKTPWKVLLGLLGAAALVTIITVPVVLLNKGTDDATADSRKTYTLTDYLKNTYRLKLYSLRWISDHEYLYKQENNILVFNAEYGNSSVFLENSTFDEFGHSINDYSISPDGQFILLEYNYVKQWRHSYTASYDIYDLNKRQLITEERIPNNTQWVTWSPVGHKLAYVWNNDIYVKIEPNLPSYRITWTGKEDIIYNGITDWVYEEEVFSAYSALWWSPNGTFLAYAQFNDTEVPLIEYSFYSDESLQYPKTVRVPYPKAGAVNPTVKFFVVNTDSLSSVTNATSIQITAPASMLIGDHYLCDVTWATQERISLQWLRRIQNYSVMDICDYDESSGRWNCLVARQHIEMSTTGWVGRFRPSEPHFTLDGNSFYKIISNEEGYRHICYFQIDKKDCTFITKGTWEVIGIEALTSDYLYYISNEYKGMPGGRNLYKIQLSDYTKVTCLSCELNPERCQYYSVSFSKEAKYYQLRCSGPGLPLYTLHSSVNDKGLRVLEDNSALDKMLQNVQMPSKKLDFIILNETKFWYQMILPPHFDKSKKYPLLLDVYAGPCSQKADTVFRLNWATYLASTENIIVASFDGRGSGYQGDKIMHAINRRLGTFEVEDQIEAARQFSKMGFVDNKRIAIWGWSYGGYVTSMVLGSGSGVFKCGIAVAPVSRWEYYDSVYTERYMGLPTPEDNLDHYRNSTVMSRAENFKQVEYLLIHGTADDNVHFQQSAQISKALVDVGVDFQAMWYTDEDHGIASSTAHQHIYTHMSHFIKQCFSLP

[2] = target: T1, DPP4 (dipeptidyl peptidase 4); assay: Half life of compound assessed as recombinant human DPP4-mediated cleavage by RP-HPLC analysis; assay type: ADME
[3] = Retention time of compound over 30 mins by HPLC analysis; assay type: physicochemical; details: 0.5 h
[4] = target: T1, DPP4 (dipeptidyl peptidase 4); assay: Drug degradation assessed as recombinant human DPP4-mediated cleavage by measuring compound remaining after 4 hrs by RP-HPLC analysis; assay type: ADME; details: read-out: Stability
[5] = target: T1, DPP4 (dipeptidyl peptidase 4); assay: Drug degradation assessed as recombinant human DPP4-mediated cleavage by measuring compound remaining after 2 hrs by RP-HPLC analysis; assay type: ADME; details: read-out: Stability
[6] = target: T1, DPP4 (dipeptidyl peptidase 4); assay: Drug degradation assessed as recombinant human DPP4-mediated cleavage by measuring compound remaining after 12 hrs by RP-HPLC analysis; assay type: ADME; details: read-out: Stability
[7] = target: T1, DPP4 (dipeptidyl peptidase 4); assay: Drug degradation assessed as recombinant human DPP4-mediated cleavage by measuring compound remaining after 1 hr by RP-HPLC analysis; assay type: ADME; details: read-out: Stability
[8] = target: Glucagon-like peptide 1 receptor (Homo sapiens, UniProt P43220); assay: Activation of human GLP1R expressed in HEK293 cells preincubated for 30 mins followed by addition of cAMP-d2 conjugate/cryptate conjugate incubated for 60 mins by fluorescence analysis; assay type: functional, cell-based
Chain of Glucagon-like peptide 1 receptor (P43220 whole entry): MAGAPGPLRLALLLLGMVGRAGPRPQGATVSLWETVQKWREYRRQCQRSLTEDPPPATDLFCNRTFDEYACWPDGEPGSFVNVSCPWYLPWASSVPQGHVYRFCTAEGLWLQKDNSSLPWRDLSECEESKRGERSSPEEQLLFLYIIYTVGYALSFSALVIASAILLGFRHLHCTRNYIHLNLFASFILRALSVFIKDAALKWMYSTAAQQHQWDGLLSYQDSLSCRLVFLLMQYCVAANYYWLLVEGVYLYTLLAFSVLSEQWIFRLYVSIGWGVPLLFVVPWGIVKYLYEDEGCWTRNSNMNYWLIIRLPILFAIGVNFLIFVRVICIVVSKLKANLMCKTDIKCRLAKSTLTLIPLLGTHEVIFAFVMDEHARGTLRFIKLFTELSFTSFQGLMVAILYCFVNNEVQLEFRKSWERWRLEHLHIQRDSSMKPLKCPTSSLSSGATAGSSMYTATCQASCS

[9] = target: T1, DPP4 (dipeptidyl peptidase 4); assay: Drug degradation assessed as recombinant human DPP4-mediated cleavage by measuring compound remaining after 72 hrs by RP-HPLC analysis; assay type: ADME; details: read-out: Stability
[10] = target: T1, DPP4 (dipeptidyl peptidase 4); assay: Drug degradation assessed as recombinant human DPP4-mediated cleavage by measuring compound remaining after 96 hrs by RP-HPLC analysis; assay type: ADME; details: read-out: Stability
[11] = target: T1, DPP4 (dipeptidyl peptidase 4); assay: Drug degradation assessed as recombinant human DPP4-mediated cleavage by measuring compound remaining after 48 hrs by RP-HPLC analysis; assay type: ADME; details: read-out: Stability
[12] = target: T1, DPP4 (dipeptidyl peptidase 4); assay: Drug degradation assessed as recombinant human DPP4-mediated cleavage by measuring compound remaining after 24 hrs by RP-HPLC analysis; assay type: ADME; details: read-out: Stability
Mus musculus [13] = assay: Reduction in blood glucose in Kunming mouse assessed as blood glucose level at 25 nmol/kg, ip at administered 0 mins followed by first glucose challenge at 40 mins followed by second glucose challenge at 310 mins and measured at 385 mins by glucose tolerance test (reference value: 4.9 to 6.3 mmol/L); assay type: functional
Mus musculus [14] = assay: Reduction in blood glucose in Kunming mouse assessed as blood glucose level at 25 nmol/kg, ip at administered 0 mins followed by first glucose challenge at 40 mins followed by second glucose challenge at 310 mins and measured at 325 mins by glucose tolerance test (reference value: 4.9 to 6.3 mmol/L); assay type: functional
Mus musculus [15] = assay: Reduction in blood glucose in Kunming mouse assessed as blood glucose level at 25 nmol/kg, ip at administered 0 mins followed by first glucose challenge at 40 mins followed by second glucose challenge at 310 mins and measured at 55 mins by glucose tolerance test (reference value: 4.9 to 6.3 mmol/L); assay type: functional
Mus musculus [16] = assay: Reduction in blood glucose in Kunming mouse assessed as blood glucose level at 25 nmol/kg, ip at administered 0 mins followed by first glucose challenge at 40 mins followed by second glucose challenge at 310 mins and measured at 115 mins by glucose tolerance test (reference value: 4.9 to 6.3 mmol/L); assay type: functional
Mus musculus [17] = assay: Reduction in blood glucose in Kunming mouse assessed as blood glucose level at 25 nmol/kg, ip at administered 0 mins followed by first glucose challenge at 40 mins followed by second glucose challenge at 310 mins and measured at 160 mins by glucose tolerance test (reference value: 4.9 to 6.3 mmol/L); assay type: functional
Mus musculus [18] = assay: Reduction in blood glucose in Kunming mouse assessed as blood glucose level at 25 nmol/kg, ip at administered 0 mins followed by first glucose challenge at 40 mins followed by second glucose challenge at 310 mins and measured at 430 mins by glucose tolerance test (reference value: 4.9 to 6.3 mmol/L); assay type: functional
Mus musculus [19] = assay: Reduction in blood glucose in Kunming mouse assessed as blood glucose level at 25 nmol/kg, ip at administered 0 mins followed by first glucose challenge at 40 mins followed by second glucose challenge at 310 mins and measured at 310 mins by glucose tolerance test (reference value: 4.9 to 6.3 mmol/L); assay type: functional
Mus musculus [20] = assay: Reduction in blood glucose in Kunming mouse assessed as blood glucose level at 25 nmol/kg, ip at administered 0 mins followed by first glucose challenge at 40 mins followed by second glucose challenge at 310 mins and measured at 80 mins by glucose tolerance test (reference value: 4.9 to 6.3 mmol/L); assay type: functional
Mus musculus [21] = assay: Reduction in blood glucose in Kunming mouse assessed as blood glucose level at 25 nmol/kg, ip at administered 0 mins followed by first glucose challenge at 40 mins followed by second glucose challenge at 310 mins and measured at 350 mins by glucose tolerance test (reference value: 4.9 to 6.3 mmol/L); assay type: functional
Mus musculus [22] = assay: Reduction in blood glucose in Kunming mouse assessed as blood glucose level at 25 nmol/kg, ip at administered 0 mins followed by first glucose challenge at 40 mins followed by second glucose challenge at 310 mins and measured at 40 mins by glucose tolerance test (reference value: 4.9 to 6.3 mmol/L); assay type: functional

Row | Structure (SMILES) | remaining at 8 h [1] | half-life [2] | Retention_time [3] | remaining at 4 h [4] | remaining at 2 h [5] | remaining at 12 h [6] | remaining at 1 h [7] | remaining at 72 h [9] | remaining at 96 h [10] | remaining at 48 h [11] | remaining at 24 h [12] | other results
1 | CC[C@H](C)[C@H](NC(=O)[C@H](Cc1ccccc1)NC(=O)[C@H](CCC(=O)O)NC(=O)[C@H](CCCCN)NC(=O)[C@H](C)NC(=O)[C@H](C)NC(=O)[C@H](CCC(N)=O)NC(=O)CNC(=O)[C@H](CCC(=O)O)NC(=O)[C@H](CC(C)C)NC(=O)[C@H](Cc1ccc(O)cc1)NC(=O)[C@H](CO)NC(=O)[C@H](CO)NC(=O)[C@@H](NC(=O)[C@H](CC(=O)O)NC(=O)[C@H](CO)NC(=O)[C@@H](NC(=O)[C@H](Cc1ccccc1)NC(=O)[C@@H](NC(=O)CCNC(=O)[C@H](CCC(=O)O)NC(=O)[C@H](C)NC(=O)[C@@H](N)Cc1cnc[nH]1)[C@@H](C)O)[C@@H](C)O)C(C)C)C(=O)N[C@@H](C)C(=O)N[C@@H](Cc1c[nH]c2ccccc12)C(=O)N[C@@H](CC(C)C)C(=O)N[C@H](C(=O)N[C@@H](CCCCN)C(=O)NCC(=O)N[C@@H](CCCNC(=N)N)C(N)=O)C(C)C | 14.9% | 2.39 h | 14.566 min | 34.8% | 57.5% | 7.5% | 74.8% |  |  |  |  | pEC50 [8]: 10.20
2 | CC[C@H](C)[C@H](NC(=O)[C@H](Cc1ccccc1)NC(=O)[C@H](CCC(=O)O)NC(=O)[C@H](CCCCN)NC(=O)[C@H](C)NC(=O)[C@H](C)NC(=O)[C@H](CCC(N)=O)NC(=O)CNC(=O)[C@H](CCC(=O)O)NC(=O)[C@H](CC(C)C)NC(=O)[C@H](Cc1ccc(O)cc1)NC(=O)[C@H](CO)NC(=O)[C@H](CO)NC(=O)[C@@H](NC(=O)[C@H](CC(=O)O)NC(=O)[C@H](CO)NC(=O)[C@@H](NC(=O)[C@H](Cc1ccccc1)NC(=O)[C@@H](NC(=O)CNC(=O)[C@H](CCC(=O)O)NC(=O)C[C@H](C)NC(=O)[C@@H](N)Cc1cnc[nH]1)[C@@H](C)O)[C@@H](C)O)C(C)C)C(=O)N[C@@H](C)C(=O)N[C@@H](Cc1c[nH]c2ccccc12)C(=O)N[C@@H](CC(C)C)C(=O)N[C@H](C(=O)N[C@@H](CCCCN)C(=O)NCC(=O)N[C@@H](CCCNC(=N)N)C(=O)O)C(C)C | 100% | > 96 h | 14.536 min | 100% | 100% | 100% | 100% | 100% | 100% | 100% | 100% | 
3 | CC[C@H](C)[C@H](NC(=O)[C@H](Cc1ccccc1)NC(=O)[C@H](CCC(=O)O)NC(=O)[C@H](CCCCN)NC(=O)[C@H](C)NC(=O)[C@H](C)NC(=O)[C@H](CCC(N)=O)NC(=O)CNC(=O)[C@H](CCC(=O)O)NC(=O)[C@H](CC(C)C)NC(=O)[C@H](Cc1ccc(O)cc1)NC(=O)[C@H](CO)NC(=O)[C@H](CO)NC(=O)[C@@H](NC(=O)[C@H](CC(=O)O)NC(=O)[C@H](CO)NC(=O)[C@@H](NC(=O)[C@H](Cc1ccccc1)NC(=O)[C@@H](NC(=O)CNC(=O)[C@H](CCC(=O)O)NC(=O)[C@H](C)CNC(=O)[C@@H](N)Cc1cnc[nH]1)[C@@H](C)O)[C@@H](C)O)C(C)C)C(=O)N[C@@H](C)C(=O)N[C@@H](Cc1c[nH]c2ccccc12)C(=O)N[C@@H](CC(C)C)C(=O)N[C@H](C(=O)N[C@@H](CCCCN)C(=O)NCC(=O)N[C@@H](CCCNC(=N)N)C(N)=O)C(C)C [listing 1 of 2 here] |  | > 96 h | 14.005 min |  |  | 100% |  | 100% | 100% | 100% | 100% | 
4 | CC[C@H](C)[C@H](NC(=O)[C@H](Cc1ccccc1)NC(=O)[C@H](CCC(=O)O)NC(=O)[C@H](CCCCN)NC(=O)[C@H](C)NC(=O)[C@H](C)NC(=O)[C@H](CCC(N)=O)NC(=O)CNC(=O)[C@H](CCC(=O)O)NC(=O)[C@H](CC(C)C)NC(=O)[C@H](Cc1ccc(O)cc1)NC(=O)[C@H](CO)NC(=O)[C@H](CO)NC(=O)[C@@H](NC(=O)[C@H](CC(=O)O)NC(=O)[C@H](CO)NC(=O)[C@@H](NC(=O)[C@H](Cc1ccccc1)NC(=O)[C@@H](NC(=O)CNC(=O)[C@H](CCC(=O)O)NC(=O)[C@H](C)CNC(=O)[C@@H](N)Cc1cnc[nH]1)[C@@H](C)O)[C@@H](C)O)C(C)C)C(=O)N[C@@H](C)C(=O)N[C@@H](Cc1c[nH]c2ccccc12)C(=O)N[C@@H](CC(C)C)C(=O)N[C@H](C(=O)N[C@@H](CCCCN)C(=O)NCC(=O)N[C@@H](CCCNC(=N)N)C(N)=O)C(C)C [listing 2 of 2 here] |  |  |  |  |  |  |  |  |  |  |  | Activity (Mus musculus [13]): 8.1 mmol/L; Activity (Mus musculus [14]): 23.4 mmol/L; Activity (Mus musculus [15]): 13.5 mmol/L; Activity (Mus musculus [16]): 10.8 mmol/L; Activity (Mus musculus [17]): 6.9 mmol/L; Activity (Mus musculus [18]): 7.8 mmol/L; Activity (Mus musculus [19]): 5.4 mmol/L; Activity (Mus musculus [20]): 16.6 mmol/L; Activity (Mus musculus [21]): 16.5 mmol/L; Activity (Mus musculus [22]): 6.1 mmol/L
5 | CC[C@H](C)[C@H](NC(=O)[C@H](Cc1ccccc1)NC(=O)[C@H](CCC(=O)O)NC(=O)[C@H](CCCCN)NC(=O)[C@H](C)NC(=O)[C@H](C)NC(=O)[C@H](CCC(N)=O)NC(=O)CNC(=O)[C@H](CCC(=O)O)NC(=O)[C@H](CC(C)C)NC(=O)[C@H](Cc1ccc(O)cc1)NC(=O)[C@H](CO)NC(=O)[C@H](CO)NC(=O)[C@@H](NC(=O)[C@H](CC(=O)O)NC(=O)[C@H](CO)NC(=O)[C@@H](NC(=O)[C@H](Cc1ccccc1)NC(=O)[C@@H](NC(=O)CNC(=O)[C@H](CCC(=O)O)NC(=O)C1(NC(=O)[C@@H](N)Cc2cnc[nH]2)CC1)[C@@H](C)O)[C@@H](C)O)C(C)C)C(=O)N[C@@H](C)C(=O)N[C@@H](Cc1c[nH]c2ccccc12)C(=O)N[C@@H](CC(C)C)C(=O)N[C@H](C(=O)N[C@@H](CCCCN)C(=O)NCC(=O)N[C@@H](CCCNC(=N)N)C(N)=O)C(C)C |  | > 96 h | 13.842 min |  |  | 100% |  | 100% | 100% | 100% | 100% | pEC50 ([8]; hek293): 10.55
6 | CC[C@H](C)[C@H](NC(=O)[C@H](Cc1ccccc1)NC(=O)[C@H](CCC(=O)O)NC(=O)[C@H](CCCCN)NC(=O)[C@H](C)NC(=O)[C@H](C)NC(=O)[C@H](CCC(N)=O)NC(=O)CNC(=O)[C@H](CCC(=O)O)NC(=O)[C@H](CC(C)C)NC(=O)[C@H](Cc1ccc(O)cc1)NC(=O)[C@H](CO)NC(=O)[C@H](CO)NC(=O)[C@@H](NC(=O)[C@H](CC(=O)O)NC(=O)[C@H](CO)NC(=O)[C@@H](NC(=O)[C@H](Cc1ccccc1)NC(=O)[C@@H](NC(=O)CNC(=O)C[C@@H](CCC(=O)O)NC(=O)[C@H](C)NC(=O)[C@@H](N)Cc1cnc[nH]1)[C@@H](C)O)[C@@H](C)O)C(C)C)C(=O)N[C@@H](C)C(=O)N[C@@H](Cc1c[nH]c2ccccc12)C(=O)N[C@@H](CC(C)C)C(=O)N[C@H](C(=O)N[C@@H](CCCCN)C(=O)NCC(=O)N[C@@H](CCCNC(=N)N)C(N)=O)C(C)C |  | 96 h | 14.669 min |  |  | 82.9% |  | 54% | 41.7% | 61.3% | 72.7% | 
